Experimental data reported in paper PMC4143111, “Photoswitchable precision glycooligomers and their lectin binding” (Beilstein Journal of Organic Chemistry, 2014).

What was measured:
PA-IL [1] = biological target: T1, PA-IL (Pseudomonas aeruginosa, UniProt Q05097); assay: SPR inhibition/competition assay of PA-IL binding to β-D-galactose-polymer chip
Experimental: In order to determine the binding affinity of the precision glycooligomers to PA-IL, surface plasmon resonance (SPR) experiments were performed. At first, an inhibition/competition assay was carried out. The SPR chip was modified with a β-D-galactose-polymer and α-D-mannose-polymer as negative control (see Supporting Information File 1). In a first experiment, binding of PA-IL (1 µM) to the chip was determined and set as 100%. In a second set of experiments, binding of preincubated mixtures of PA-IL (1 µM) and glycooligomers at serial dilutions (400 µM to 0.1 µM) were measured. […] Plotting this concentration dependent decrease in binding against […], sigmoidal curves were obtained and fitted with the Hill equation. The inhibitory concentration at 50% binding (IC50) was derived for the different glycooligomers (Table 2).
SPR PA-IL inhibition/competition studies:
A sensor chip SA coated with streptavidin was conditioned with three consecutive injections of 100 µl 1 M NaCl and 50 mM NaOH in a flow rate of 100 µL/min. Then, biotinylated β-D-galactose-PAA (0.1 nM in HBS-EP buffer) was immobilized on flow cell 2 with HBS-EP buffer in a flow rate of 5 µL/min.
Biotinylated α-D-mannose-PAA with the same concentration was immobilized as reference on flow cell 1. Binding analyses were carried out with running buffer (HEPES 10 mM, NaCl 150 mM, CaCl2 10 mM, pH 7.4.) at a flow rate of 20 µl/min. The PA-IL binding of the glycooligomers AZO-Gal(1,3)-3, AZO-Gal(1,3,5)-5, EDS-Gal(1,3)-3, EDS-Gal(1,3,5)-5 and AZO-Man(1,3,5)-5 (as control) was examined.
1 µM Pa-IL was incubated with the specific substance at final concentrations of 400 µM, 100 µM, 50 µM, 25 µM, 10 µM, 1 µM and 0.1 µM, in running buffer for 60 minutes at room temperature.
45 µL of each sample were injected over both lanes whereas the binding signal on the reference cell (α-D-mannose-PAA) was subtracted from the β-D-galactose-PAA flow cell during the binding measurement. Each binding cycle consisted of an injection phase for 80 s followed by a 100 s dissociation phase. The chip was regenerated after each run with 100 mM D-galactose in running buffer. The response values were calculated by subtraction of the report point at the beginning of the sample injections (0 s) from the report point at the end of the dissociation phase ([…]). The binding signal obtained by the 1 µM Pa-IL solution in running buffer without inhibitor was set to 100 % binding. This sample was measured 2 times before and 2 times after each measuring cycle. The binding signals of the specific inhibitor was referred to Pa-IL and calculated for relative PA-Il binding in % of PA-IL. Each data point (concentration) represents the mean value (± SEM) of two measurements. The obtained data points for each concentration were plotted with Origin 8.5G and fit with Hill1 equation, allowing for the determination of IC50 values (the concentration of inhibitor that results from 50 % binding of PA-IL binding to β-D-galactose-PAA on the sensor chip).
The characteristic sigmoidal shape (see Figure S4) was fitted with the Hill equation to obtain the IC50 […]
where Start is the value at 100% binding and equals 100, End is the value where no binding is observed anymore and equals 0, x corresponds to the concentration and n describes the cooperativity. IC50 values describe the inhibitory potential of a ligand for a specific receptor which is no direct measure for the affinity of a ligand but can be related to the affinity of the ligand in a competitive experiment e.g. as we have performed with PA-IL and against β-D-galactose.

[2] = Photoisomerization, composition at photostationary state by UPLC; assay type: physicochemical; details: irradiation at 360 nm
Experimental: The photochromic behavior of the newly synthesized AZO-glycooligomers was investigated by UV–vis absorption spectroscopy and ultraperformance liquid chromatography (UPLC). Aqueous solutions of Azo-Gal(1,3)-3 and Azo-Gal(1,3,5)-5 (the compounds were dissolved in the buffer used for the SPR measurements, see Supporting Information File 1 for the details) were irradiated at λ = 360 nm to induce the E → Z isomerization. […] The composition at the photostationary state (PSS) was analyzed by UPLC using integration of the UV signal at the wavelengths of the isosbestic points.

PA-IL [3] = biological target: T1, PA-IL; assay: SPR direct binding assay, glycooligomers immobilized on chip, PA-IL flown over; details: steady-state affinity model
Description: In order to approach practical applications of a photoswitchable device that could modulate its binding affinity towards PA-IL lectins on demand, we were intrigued in the ability of our light-responsive systems to work when immobilized on a surface. To this end we attached the photoswitchable precision glycooligomers directly to the SPR chip and performed a second set of lectin binding experiments using SPR and measuring PA-IL binding on the chip. The glycooligomers were covalently linked to the chip via their terminal amine group and the simultaneous activation of the carboxyl-functionalized chip surface as N-hydroxysuccinimide (NHS) ester (see Supporting Information File 1). Successful functionalization was monitored by SPR. Photoswitching of the glycooligomers was realized either ex situ prior to surface functionalization or in situ by direct irradiation of the functionalized chip. The equilibrium constant KD was obtained by fitting the obtained binding values at the turning point between binding- and dissociation-curve with a steady-state affinity model (Biacore T100 Evaluation Software 2.0.3). In agreement with the previously determined IC50 values, all KD values are in the µM range.
Figure S5: Inhibition curves of controls, Azo-Man(1,3,5)-5 and β-methyl galactose.
SPR PA-IL direct binding studies
For direct binding studies, glycooligomers E-Azo-Gal(1,3)-3, E-Azo-Gal(1,3,5)-5, Azo-Gal(1,3)-3-PSS and Azo-Gal(1,3,5)-5-PSS were immobilized on Biacore CM5 sensor chips. Two PSS were additionally generated by irradiation of the corresponding E structure immobilized on the Biacore sensor chip with light at 360 nm (see irradiation section above for details). Immobilizations were performed by flowing a solution of 2 mM glycoligand for 5 minutes with 10 µL per minute over one flow cell, after activation of it with 0.4 M […] in water and 0.1 M NHS in water. Remaining active ester groups were capped by injection of 1 M ethanolamine. HBS-P (0.01 M HEPES pH 7.4, 0.15 M NaCl, 0.005% v/v Surfactant P20 in water) was used as running buffer. A second flow cell was immobilized as blank reference cell, by flowing 1 M ethanolamine over the cell after activation with 0.4 M EDS in water and 0.1 M NHS in water. Serial dilutions of PA-IL (25 µM, 10 µM, 5 µM, 1 µM, 0.1 µM and 0 µM) were then flown over the sensor chip at 25 °C with Hepes running buffer (HEPES 10 mM, NaCl 150 mM, CaCl2 10 mM, pH 7.4.). Binding of lectin was evaluated with Biacore T100 evaluation software, determining KD affinity constants by employing a steady state affinity model.
(1 picture or pasted object on this page, not shown here)

[4] = no isomer state given (control structures), PA-IL 1 µM

T1 sequence (Q05097 whole entry): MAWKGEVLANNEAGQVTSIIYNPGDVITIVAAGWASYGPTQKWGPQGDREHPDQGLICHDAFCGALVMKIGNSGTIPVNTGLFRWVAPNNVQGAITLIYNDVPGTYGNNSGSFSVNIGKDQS

**Q.** For CC(=O)NCCN(CCNC(=O)CCC(=O)NCc1ccc(/N=N/c2ccc(C(=O)NCCN(CCNC(=O)CCC(=O)NCCN)C(=O)CCc3cn(CCO[C@@H]4O[C@H](CO)[C@H](O)[C@H](O)[C@H]4O)nn3)cc2)cc1)C(=O)CCc1cn(CCO[C@@H]2O[C@H](CO)[C@H](O)[C@H](O)[C@H]2O)nn1 [AZO-Gal(1,3)-3], which IC50 (PA-IL [1]; IC50, E-isomer, PA-IL 1 µM preincubated with glycooligomer 400 µM to 0.1 µM) is on record?
**A.** 5.7 ± 1.7 µM

**Q.** What about the IC50 (PA-IL [1]; IC50, PSS: photostationary state @ 360 nm, PA-IL 1 µM preincubated with glycooligomer 400 µM to 0.1 µM) of the same compound?
**A.** 9.4 ± 0.1 µM

**Q.** What about the “Z-azobenzene in the PSS solution” value ([2]; buffer solution) of the same compound?
**A.** 78%

**Q.** What about the Kd (PA-IL [3]; KD, E-form immobilized on chip, 25 °C) of the same compound?
**A.** 1.7 ± 0.1 µM

**Q.** And the Kd (PA-IL [3]; KD, PSS @ 360 nm, ex situ irradiation before immobilization)?
**A.** 2.4 ± 0.1 µM

**Q.** And the Kd (PA-IL [3]; KD, PSS @ 360 nm, irradiation on chip)?
**A.** 1.8 ± 0.1 µM

**Q.** With CC(=O)NCCN(CCNC(=O)CCC(=O)NCc1ccc(/N=N/c2ccc(C(=O)NCCN(CCNC(=O)CCC(=O)NCc3ccc(/N=N/c4ccc(C(=O)NCCN(CCNC(=O)CCC(=O)NCCN)C(=O)CCc5cn(CCO[C@@H]6O[C@H](CO)[C@H](O)[C@H](O)[C@H]6O)nn5)cc4)cc3)C(=O)CCc3cn(CCO[C@@H]4O[C@H](CO)[C@H](O)[C@H](O)[C@H]4O)nn3)cc2)cc1)C(=O)CCc1cn(CCO[C@@H]2O[C@H](CO)[C@H](O)[C@H](O)[C@H]2O)nn1 [AZO-Gal(1,3,5)-5] as the compound, how does the IC50 (PA-IL [1]; E-isomer, PA-IL 1 µM preincubated with glycooligomer 400 µM to 0.1 µM) read?
**A.** 3.4 ± 0.4 µM

**Q.** What about the IC50 (PA-IL [1]; PSS: photostationary state @ 360 nm, PA-IL 1 µM preincubated with glycooligomer 400 µM to 0.1 µM) of the same compound?
**A.** 4.1 ± 1.3 µM

**Q.** And the “E,E-isomer that did not isomerize at PSS” value ([2]; UPLC)?
**A.** 10%

**Q.** And the “E,Z isomer at PSS” value ([2]; UPLC)?
**A.** 10%

**Q.** What about the “Z,E isomer at PSS” value ([2]; UPLC) of the same compound?
**A.** 10%

**Q.** What about the “Z,Z-isomer at PSS” value ([2]; UPLC) of the same compound?
**A.** 70%

**Q.** What about the “total amount of Z-azobenzenes in the PSS mixture” value ([2]; buffer solution, from isomer composition) of the same compound?
**A.** 80%

**Q.** What about the Kd (PA-IL [3]; E-form immobilized on chip, 25 °C) of the same compound?
**A.** 3.3 ± 0.3 µM

**Q.** And the Kd (PA-IL [3]; PSS @ 360 nm, ex situ irradiation before immobilization)?
**A.** 7.4 ± 0.9 µM

**Q.** What about the Kd (PA-IL [3]; PSS @ 360 nm, irradiation on chip) of the same compound?
**A.** 3.2 ± 0.9 µM

**Q.** With CC(=O)NCCN(CCNC(=O)CCC(=O)NCc1ccc(/N=N/c2ccc(C(=O)NCCN(CCNC(=O)CCC(=O)NCc3ccc(/N=N/c4ccc(C(=O)NCCN(CCNC(=O)CCC(=O)NCCN)C(=O)CCc5cn(CCO[C@H]6O[C@H](CO)[C@@H](O)[C@H](O)[C@@H]6O)nn5)cc4)cc3)C(=O)CCc3cn(CCO[C@H]4O[C@H](CO)[C@@H](O)[C@H](O)[C@@H]4O)nn3)cc2)cc1)C(=O)CCc1cn(CCO[C@H]2O[C@H](CO)[C@@H](O)[C@H](O)[C@@H]2O)nn1 [AZO-Man(1,3,5)-5] as the compound, how does the “binding to PA-IL (in words)” value (PA-IL [1]; SPR inhibition/competition assay) read?
**A.** does not show any binding

**Q.** And the IC50 (PA-IL [1]; [4])?
**A.** n.b.^b

**Q.** Which IC50 (PA-IL [1]; IC50, no isomer state given (control structures), PA-IL 1 µM) does the source give for CC(=O)NCCN(CCNC(=O)CCC(=O)NCCOCCOCCNC(=O)CCC(=O)NCCN(CCNC(=O)CCC(=O)NCCN)C(=O)CCc1cn(CCO[C@@H]2O[C@H](CO)[C@H](O)[C@H](O)[C@H]2O)nn1)C(=O)CCc1cn(CCO[C@@H]2O[C@H](CO)[C@H](O)[C@H](O)[C@H]2O)nn1 [EDS-Gal(1,3)-3] here?
**A.** 3.2 ± 0.2 µM

**Q.** With CC(=O)NCCN(CCNC(=O)CCC(=O)NCCOCCOCCNC(=O)CCC(=O)NCCN(CCNC(=O)CCC(=O)NCCOCCOCCNC(=O)CCC(=O)NCCN(CCNC(=O)CCC(=O)NCCN)C(=O)CCc1cn(CCO[C@@H]2O[C@H](CO)[C@H](O)[C@H](O)[C@H]2O)nn1)C(=O)CCc1cn(CCO[C@@H]2O[C@H](CO)[C@H](O)[C@H](O)[C@H]2O)nn1)C(=O)CCc1cn(CCO[C@@H]2O[C@H](CO)[C@H](O)[C@H](O)[C@H]2O)nn1 [EDS-Gal(1,3,5)-5] as the compound, how does the IC50 (PA-IL [1]; [4]) read?
**A.** 2 ± 0.6 µM
